The text below walks through data of PMC7421780 (Future Medicinal Chemistry, 2020).

What all share (experiment): microbe, parasite or virus in culture
Common to all, as to format: cell-based
What all share (settings): Mycobacterium tuberculosis

For assay [1], the system named is INH-R1 (Mtb strain resistant to isoniazid).
Assay [2] has as its system RIF-R2 (Mtb strain resistant to rifampicin).
Assay [3] concerns RIF-R1 (Mtb strain resistant to rifampicin).
The subject of assay [4] is FQ-R1 (Mtb strain resistant to fluoroquinolone).
Assay [5] relates to INH-R2 (Mtb strain resistant to isoniazid).

Converted amounts (≈) assume the structure as drawn.

The IC50 is the point on the concentration scale where inhibition reaches its midpoint. Low values mean higher potency, high ones lower potency. Usually IC90 stands for the concentration at which the effect reaches the 90% level. Regarding `NNC(=O)c1ccncc1` [Isoniazid, reference compound], the half-maximal inhibitory concentration (IC50) in assay [1] is above 200 µM; in assay [2], 0.54 µM; in assay [3], 0.15 µM; in assay [4] it was 0.36 µM; in assay [5] it was above 200 µM. In addition, the IC90 in assay [1] is above 200 µM; in assay [2], 0.6 µM; in assay [3], 0.21 µM; in assay [4], 0.47 µM; in assay [5], above 200 µM. Also, the MIC in assay [1] was above 200 µM; in assay [2], 0.62 µM (≈ 0.085 µg/mL); in assay [3], 0.17 µM (≈ 0.0233 µg/mL); in assay [4] it was 0.35 µM (≈ 0.048 µg/mL); in assay [5] it was above 200 µM.
In the case of `O=[N+]([O-])c1cn(Cc2cccc(Cn3cnc([N+](=O)[O-])c3)n2)cn1` [Compound 2b, 2,6-bis((4-nitro-1H-imidazol-1-yl)methyl)pyridine], the IC50 in assay [1] is 68 µM; in assay [2] it was 38 µM; in assay [3], 60 µM; in assay [4], 66 µM; in assay [5], 24 µM. Besides, the IC90 in assay [1] was 90 µM; in assay [2] it was 61 µM; in assay [3] it was 160 µM; in assay [4], 92 µM; in assay [5] it was 28 µM. For the same compound, the MIC came out at 98 µM (≈ 32.3 µg/mL) in assay [1]; 68 µM (≈ 22.4 µg/mL) in assay [2]; 111 µM (≈ 36.5 µg/mL) in assay [3]; 102 µM (≈ 33.6 µg/mL) in assay [4]; 28 µM (≈ 9.22 µg/mL) in assay [5].
In the case of `C[C@H]1COc2c(N3CCN(C)CC3)c(F)cc3c(=O)c(C(=O)O)cn1c23` [Compound C3, Levofloxacin, reference compound], the IC50 in assay [1] came to 0.64 µM; in assay [2], 0.6 µM; in assay [3], 0.59 µM; in assay [4], 12 µM; in assay [5], 0.84 µM. Further, the IC90 in assay [1] worked out at 1.4 µM; in assay [2], 1.2 µM; in assay [3], 0.91 µM; in assay [4], 22 µM; in assay [5] it was 1.4 µM. For the same compound, the results for the MIC in assay [1], in assay [2] and in assay [4] were 1.2 µM (≈ 0.434 µg/mL), 1.1 µM (≈ 0.398 µg/mL) and 20 µM (≈ 7.23 µg/mL), respectively.
As for `O=C(C[n+]1cn(Cc2cccc(Cn3c[n+](CC(=O)c4ccccc4)c4ccccc43)n2)c2ccccc21)c1ccccc1.[Br-].[Br-]` [Compound 6c, 1,1′-(pyridine-2,6-diylbis(methylene))bis(3-(2-oxo-2-phenylethyl)-1H-benzo[d]imidazol-3-ium) bromide], the concentration for half-maximal inhibition (IC50) came out at 42 µM in assay [1]; 44 µM in assay [2]; 24 µM in assay [3]; 40 µM in assay [4]; 42 µM in assay [5]. In addition, the 90% effect concentration (IC90) in assay [1] is 170 µM; in assay [2] it was 120 µM; in assay [3], 110 µM; in assay [4], above 200 µM; in assay [5], 150 µM. The MIC in assay [1] worked out at 120 µM; in assay [2], 100 µM; in assay [3], 87 µM; in assay [4], 200 µM; in assay [5], 110 µM.
For the compound `O=C(C[n+]1ccn(Cc2cccc(Cn3cc[n+](CC(=O)c4ccc([N+](=O)[O-])cc4)c3)n2)c1)c1ccc([N+](=O)[O-])cc1.[Br-].[Br-]` [Compound 4f, 1,1′-(pyridine-2,6-diylbis(methylene))bis(3-(2-(4-nitrophenyl)-2-oxoethyl)-1H-imidazol-3-ium) bromide], the half-inhibitory concentration (IC50) in assay [1] was determined as 46 µM; in assay [2], 40 µM; in assay [3], 35 µM; in assay [4], 49 µM; in assay [5], 39 µM. Besides, the IC90 in assay [1] was 52 µM; in assay [2], 120 µM; in assay [3] it was 100 µM; in assay [4] it was 91 µM; in assay [5] it was 75 µM. The MIC in assay [1] is 55 µM; in assay [2], above 200 µM; in assay [3], 67 µM; in assay [4] it was 87 µM; in assay [5], 65 µM.
Turning to `c1cc(Cn2cnc3ccccc32)nc(Cn2cnc3ccccc32)c1` [Compound 5, 2,6-bis((1H-benzo[d]imidazol-1-yl)methyl)pyridine], the half-inhibitory concentration (IC50) in assay [1], in assay [2], in assay [3], in assay [4] and in assay [5] was above 50 µM in each case. For the same compound, the IC90 in assay [1], in assay [2], in assay [3], in assay [4] and in assay [5] was above 50 µM in each case. The MIC in assay [1], in assay [2], in assay [3], in assay [4] and in assay [5] was above 50 µM each time.
For the compound `CO[C@H]1/C=C/O[C@@]2(C)Oc3c(C)c(O)c4c(O)c(c(/C=N/N5CCN(C)CC5)c(O)c4c3C2=O)NC(=O)/C(C)=C\C=C\[C@H](C)[C@H](O)[C@@H](C)[C@@H](O)[C@@H](C)[C@H](OC(C)=O)[C@@H]1C` [Rifampicin, reference compound], the concentration for an effect of 90% (IC90) in assay [1] was 0.022 µM; in assay [2], above 50 µM; in assay [3], 2.3 µM; in assay [4], 0.039 µM; in assay [5] it was 0.012 µM. Moreover, the IC50 in assay [2] is above 50 µM; in assay [3], 1.2 µM; in assay [4], 0.013 µM; in assay [5] it was 0.0047 µM. Further, the MIC is above 50 µM in assay [2], 0.027 µM (≈ 0.0222 µg/mL) in assay [4] and 0.065 µM (≈ 0.0535 µg/mL) in assay [5].
As to `O=C(C[n+]1cn(Cc2cccc(Cn3c[n+](CC(=O)c4ccc([N+](=O)[O-])cc4)c4ccccc43)n2)c2ccccc21)c1ccc([N+](=O)[O-])cc1.[Br-].[Br-]` [Compound 6f, 1,1′-(pyridine-2,6-diylbis(methylene))bis(3-(2-(4-nitrophenyl)-2-oxoethyl)-1H-benzo[d]imidazol-3-ium) bromide], the half-inhibitory concentration (IC50) worked out at 13 µM in assay [1]; 17 µM in assay [2]; 15 µM in assay [3]; 18 µM in assay [4]; 13 µM in assay [5]. In addition, the 90% effect concentration (IC90) in assay [1] was 21 µM; in assay [2] it was 31 µM; in assay [3], 24 µM; in assay [4], 38 µM; in assay [5] it was 22 µM. Also, the MIC in assay [1] came to 24 µM; in assay [2], 30 µM; in assay [3] it was 25 µM; in assay [4] it was 38 µM; in assay [5] it was 25 µM.
